The text below walks through data of PMC7188706 (Cancer Chemotherapy and Pharmacology, 2020).

“Also recorded” adds a separate entry of the source. Like-named read-outs stand apart in the source and are kept apart here.

Series [1] can be described thus: Plasma pharmacokinetics and drug monitoring of high-dose, pulsatile sorafenib (LC-MS/MS, non-compartmental). Particulars: for Cmax / AUC(0-t): human, oral.
Method: (§1) This single center phase I study was conducted at the Amsterdam UMC, location VUmc, the Netherlands. […] The starting exposure level was 25–50 mg/L/h, analogous to the continuous schedule [23], and was escalated in subsequent cohorts with increments of 25 mg/L/h.
Per patient a maximum of two dose adjustments were permitted. In addition, the maximum concentration (Cmax) and time of maximum concentration (Tmax) were determined.
Series [2] concerns advanced solid malignancies. As to conditions: cited from earlier work.
Series [3] deals with advanced solid malignancies. In words: Tumor response by CT or MRI using RECIST version 1.1. Type of series: in vivo, human. The protocol:
Tumor response was assessed by computed tomography or magnetic resonance imaging at baseline and every 8 weeks thereafter using RECIST version 1.1 [24].
Descriptive statistics were used to describe patient characteristics, treatment administration, safety, efficacy and pharmacokinetic data. […] Fisher’s exact tests were used to assess correlations between exposure level or dose and frequency of AEs. […] Data were considered significant at P < 0.05.

A short description of series [4]: Effect of cola versus water on sorafenib exposure (dose normalized Cmax and AUC(0–12 h)). Type of series: in vivo, human. As to conditions: dissolved in cola vs water, patients using PPI. The source says:
Descriptive statistics were used to describe patient characteristics, treatment administration, safety, efficacy and pharmacokinetic data. Progression-free survival (PFS) was defined as the time from first treatment until progression of disease or death as a result of any cause. Fisher’s exact tests were used to assess correlations between exposure level or dose and frequency of AEs. […] Data were considered significant at P < 0.05.

Series [5] deals with patients with advanced solid malignancies. As to conditions: in vivo.
Method: as §1
(§2) Each dose was dissolved in either a large glass of water or classic Coca-Cola (the Coca-Cola Company, Atlanta GA) (~ 240 ml).
(§3) Safety and tolerability assessments, including physical examination, ECG and blood hematology and chemistry, were performed weekly during the first 8 weeks and once every 4 weeks thereafter. Adverse events (AEs) were graded according to the National Cancer Institute Common Terminology Criteria for Adverse Events version 4.0.
(§4) Dose (/exposure)-limiting toxicity (DLT) was defined as any grade 3 toxicity that occurred within the first 6 weeks of treatment and possibly related to the study drug.
For series [6] the following is noted: cited from earlier work.
On the set-up of series [7]: method as in PMID 15613696. Particulars: 400 mg twice daily; cited from earlier work.
For series [8] the following is noted: cited from earlier work. This is another data set of the same source.
For series [9], the system named is progressive renal cell carcinoma. Particulars: 600 mg twice daily after failure of standard dosing; cited from earlier work.
The conditions of series [10]: cited from earlier work. This is another data set of the same source.
The subject of series [11] is 789-O renal cell carcinoma xenografts. Particulars: high-dose schedule; also increased reduction of tumor perfusion and microvessel density; cited from earlier work.
For another series, the system named is patients. Particulars: cited from earlier work.
The conditions of series [12]: cited from earlier work. This is another data set of the same source.
Series [13] relates to patients with advanced solid malignancies. In words: Phase I safety: treatment-related adverse events (CTCAE v4.0) and dose-limiting toxicity of once weekly high-dose, pulsatile sorafenib.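 Note: Single-center phase I trial, adverse events graded by NCI CTCAE version 4.0, safety checks weekly over the first 8 weeks, then every 4 weeks.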
Method: as §1, §2, §3, §4
For series [14], the system named is HER2-positive breast cancer. Details: method as in PMID 24711549. As to conditions: escalated to 7000 mg on days 1–5 of repeating 14-day cycles, heavily pre-treated patients; cited from earlier work.
The test system of a further series is NSCLC patients. Also noted: method as in PMID 16878326. As to conditions: 2000 mg per week; cited from earlier work.
On the set-up of series [15]: method as in PMID 26858332. As to conditions: patients using omeprazole; cited from earlier work.
Series [16] concerns patients with known EGFR mutations. As to conditions: cited from earlier work.

For `CNC(=O)c1cc(Oc2ccc(NC(=O)Nc3ccc(Cl)c(C(F)(F)F)c3)cc2)cc[n+]1[O-]` [sorafenib N-oxide], the “metabolite as share of the parent drug” value in series [1] (plasma) was “approximately 4%”.
With `CCN(CC)CCNC(=O)c1c(C)[nH]c(/C=C2\C(=O)Nc3ccc(F)cc32)c1C` [sunitinib], the “increase of Cmax” value in [2] (14 times the conventional dose) is recorded as 18 fold. The “patients with PFS of ≥ 5 months” value in [2] was 30%. In addition, the “patients with clinical benefit” value in series [2] (more than 70 heavily pre-treated patients) is on record as 63%.
Broadly, the Cmax is the maximum level reached in the sampled fluid or tissue. In general, AUC(0-t) refers to exposure summed from dosing to a finite time, without extrapolation to infinity. For the compound `CNC(=O)c1cc(Oc2ccc(NC(=O)Nc3ccc(Cl)c(C(F)(F)F)c3)cc2)ccn1` [sorafenib], the “duration of stable disease” value in series [3] (patient with cholangiocarcinoma, target exposure 75–100 mg/L/h, 2400 mg/week) was found to be 3 months. Besides, the “duration of stable disease” value in series [3] (patient with hepatocellular carcinoma, target exposure 100–125 mg/L/h, 4800 mg/week) amounted to 5.5 months. In addition, the “complete or partial responses” value in series [3] (thirteen patients evaluable) was “No complete or partial responses were observed”. Also, the “progressive disease, patients” value in [3] (thirteen patients evaluable, eleven patients) worked out at 85%. Also, the “best response stable disease, patients” value in series [3] (thirteen patients evaluable, two patients) was 15%. Also, the “effect of cola on sorafenib AUC(0–12 h)” value in series [4] (P = 0.24) was “did not improve sorafenib exposure; also recorded: did not lead to an increase; also recorded: did not affect”. In addition, in [4] (P = 0.33), the “effect of cola on sorafenib Cmax” value is listed as “did not lead to an increase; also recorded: did not affect”. In addition, in [5] (human), the “ALP increased, Grade All, no. of patients (%)” value is listed as 3 (20%); the “ALP increased, Grade ≥ 3, no. of patients (%)” value is 2 (13%); the “Anorexia, Grade All, no. of patients (%)” value is 3 (20%); the “Anorexia, Grade ≥ 3, no. of patients (%)” value stood at 0. In [5] (human), the “Bilirubin increased, Grade All, no. of patients (%)” value was 2 (13%); the “Bilirubin increased, Grade ≥ 3, no. of patients (%)” value is on record as 0; the “Bloating, Grade All, no. of patients (%)” value is on record as 2 (13%); the “Bloating, Grade ≥ 3, no. of patients (%)” value was determined as 0. In addition, in [5] (human), the “Diarrhea, Grade All, no. of patients (%)” value was 4 (27%); the “Diarrhea, Grade ≥ 3, no. of patients (%)” value was determined as 0; the “Fatigue, Grade All, no. of patients (%)” value is given as 10 (67%); the “Fatigue, Grade ≥ 3, no. of patients (%)” value was determined as 0. Besides, in [5] (human), the “GGT increased, Grade All, no. of patients (%)” value is 1 (7%); the “GGT increased, Grade ≥ 3, no. of patients (%)” value is 1 (7%); the “Multiorgan failure, Grade All, no. of patients (%)” value is listed as 1 (7%); the “Multiorgan failure, Grade ≥ 3, no. of patients (%)” value is 1 (7%). In addition, in series [5] (human), the “Nausea, Grade All, no. of patients (%)” value is 10 (67%); the “Nausea, Grade ≥ 3, no. of patients (%)” value is on record as 0; the “Perforation, Grade All, no. of patients (%)” value is reported as 2 (13%); the “Perforation, Grade ≥ 3, no. of patients (%)” value is reported as 2 (13%). For the same compound, in [5] (human), the “Stomatitis, Grade All, no. of patients (%)” value is listed as 2 (13%); the “Stomatitis, Grade ≥ 3, no. of patients (%)” value was 0; the “Vomiting, Grade All, no. of patients (%)” value was 8 (53%); the “Vomiting, Grade ≥ 3, no. of patients (%)” value was determined as 0. Further, in series [5] (human), the “diarrhea, frequency” value is given as 27%; the “doses from which grade ≥ 3 AEs developed” value is reported as at least 2800 mg/week; the “fatigue, frequency” value was determined as 67%; the incidence of perforation amounted to 13%. In series [5] (human), the “nausea, frequency” value is listed as 67%; the “patients requiring dose interruptions” value was found to be 33%; the “patients with dose interruptions due to DLTs leading to permanent study discontinuation” value was 20%; the “vomiting, frequency” value turned out to be 53%. Besides, the “dose-limiting toxicity, one patient” value in series [5] (human, 3 cycles) is on record as “grade 5 biliary tract perforation”. Further, in [5], the “frequency and rate of grade ≥ 3 AEs versus dose” value was “increased with a higher dose of sorafenib”; the “frequency and rate of grade ≥ 3 AEs versus exposure” value was “did not increase with higher exposure”; the “patients with dose-limiting toxicity” value is “three patients”. The solubility in series [6] (pH 1.0) is 0.034 mg/100 mL. Moreover, the solubility in series [6] (pH 4.5) is reported as 0.013 mg/100 mL. Besides, in [7], the “mean Cmax, steady state” value is 5400 to 9400 ng/mL; the “mean sorafenib exposure (AUC), day 1” value is 21.8 to 107 mg/L/h; the “mean sorafenib exposure (AUC), steady state” value is 47.8 to 71.7 mg/L/h. Moreover, the “improvement of absorption by multiple divided doses per day” value in series [8] is 50%. Also, the “effects of PPI on sorafenib absorption” value in [8] (contradicting results) is “no effects to one-third reduction”. Also, in [8] (daily continuous schedule), the “dose above which absorption is saturable” value is listed as above 800 mg/day. Also, the “improvement of absorption by a moderate fat meal” value in series [8] (in comparison to a high fat meal of ≥ 50% fat) was 30%. The “patients with tumor reduction” value in series [9] was 42%. Further, the “association of higher AUCmax (> 100 mg/L/h) with outcome” value in series [10] was “longer progression-free survival”. The “tumor growth in comparison to continuous conventional dosing” value in [11] is reported as “slower tumor growth”. Moreover, in the series with patients (standard continuous schedule), the “incidence of perforation of the gastrointestinal tract” value is on record as below 1%. The “most important DLTs” value in the series on patients (standard dose sorafenib, several phase I studies) was “skin toxicity, diarrhea and fatigue”. The enterohepatic circulation result in series [12] is “has been observed”. In [1] (Cohort 1, target AUC(0–12 h) 25–50 mg/L/h, PK-guided dose week 3 533 (± 306) mg, plasma), the “Observed AUC(0–12 h) week 3, mean (± SD)” value is recorded as 31 (± 13) mg/L/h. Moreover, the “mean difference between observed and target AUC(0–12 h), week 3” value in series [1] (after drug monitoring / personalized dose titration, SD ± 32%, P = 0.06 vs week 1) was 2%. In addition, in series [1] (fixed starting dose, SD ± 56%), the “mean difference between observed and target AUC(0–12 h), week 1” value is given as 45%. The Cmax in series [1] (plasma, 533 mg, Cmax week 3, mean (± SD), Cohort 1, PK-guided dose week 3 533 (± 306) mg) was 4380 ng/mL. In [1] (plasma, 1000 mg, AUC(0–12 h), range, first exposure cohort, target AUC(0–12 h) 25–50 mg/L/h), this compound gave an AUC(0-t) of 61 to 103 µg·h/mL. The compound also displayed an AUC(0-t) in series [1] (plasma, 1000 mg, Observed AUC(0–12 h) week 1, mean (± SD), Cohort 1, 3 patients, target AUC(0–12 h) 25–50 mg/L/h, fixed dose week 1 1000 mg) of 78 µg·h/mL. Moreover, the highest level in series [1] (plasma, 1867 mg, Cmax week 3, mean (± SD), Cohort 2, PK-guided dose week 3 1867 (± 993) mg) (Cmax) was 11100 ng/mL. In series [1] (plasma, 2000 mg, Cmax week 1, mean (± SD), Cohort 2, 8 patients, fixed dose week 1 2000 mg), this compound showed a Cmax of 13700 ng/mL. In addition, the AUC(0-t) in series [1] (plasma, 2000 mg, Observed AUC(0–12 h) week 1, mean (± SD), Cohort 2, 8 patients, target AUC(0–12 h) 75–100 mg/L/h, fixed dose week 1 2000 mg) turned out to be 125 µg·h/mL. In addition, the peak level in series [1] (plasma, 2333 mg, Cmax week 3, mean (± SD), Cohort 3, PK-guided dose week 3 2333 (± 219) mg) (Cmax) was 13300 ng/mL. This compound had a Cmax in series [1] (plasma, 2400 mg, Cmax week 1, mean (± SD), Cohort 3, 3 patients, fixed dose week 1 2400 mg) of 20800 ng/mL. Moreover, in [1] (plasma, 2400 mg, Cmax, highest, SD ± 11 mg/L), the Cmax was at most 21000 ng/mL. In series [1] (plasma, 2400 mg, highest exposure levels, AUC(0–12 h), SD ± 113 mg/L/h), this compound had an AUC(0-t) of at most 204 µg·h/mL. The AUC(0-t) in series [1] (plasma, 2800 mg, Observed AUC(0–12 h) week 1, mean (± SD), Cohort 4, 3 patients, target AUC(0–12 h) 125–150 mg/L/h, fixed dose week 1 2800 mg) was 120 µg·h/mL. The compound also yielded an AUC(0-t) in series [1] (plasma, 3600 mg, observed AUC(0–12 h), individual patient, patient with grade 5 biliary tract perforation, sorafenib dose 3600 mg) of 182 µg·h/mL. Moreover, the “sorafenib dose up to which mean exposure increased” value in series [1] (no additional increases thereafter, divided doses of 200–400 mg every 2 h) was “up to 2400 mg per week”. The “accumulation a week after each ingestion” value in series [1] (once weekly) was “No accumulation”. For the same compound, the “tolerated dose in a pulsatile schedule as multiple of conventional dose” value in [13] is ~ 3.5 times.
As for `CS(=O)(=O)CCNCc1ccc(-c2ccc3ncnc(Nc4ccc(OCc5cccc(F)c5)c(Cl)c4)c3c2)o1` [lapatinib], the objective response rate in series [14] was 15%.
`C#Cc1cccc(Nc2ncnc3cc(OCCOC)c(OCCOC)cc23)c1` [erlotinib]: in the series with NSCLC patients, the “mean overall survival (OS)” value is 9.5 months and the tolerability result is “well tolerated”. The “effect of cola intake on bioavailability” value in series [15] is “did improve by cola intake”. Moreover, the tolerability result in series [16] (erlotinib 450 mg every 3 days or gefitinib 1000 mg every 4 days) was “well tolerated”. In [16] (erlotinib 450 mg every 3 days), the “median PFS” value was 6 months and the response rate was 15%.
